In patent publication US9067977B2, “Peptides derivatized with A-B-C-D- and their therapeutical use” (Novo Nordisk A/S, priority 2007, dated 2015):
Starred links: 1 amine or outer side, 2 acyl side, 3 side chain; linkers in the order of their positions; H or OH if unused. Non-standard residues stand in square brackets, D forms with d. Residues, ends and D or L forms follow the SMILES beside them. Groups on a side chain read outwards from the residue. *: point of attachment. C20 diacid = O=C(O)CCCCCCCCCCCCCCCCCCC(=O)*; C18 diacid = O=C(O)CCCCCCCCCCCCCCCCC(=O)*; d(βAsp) = O=C(O)[C@@H](CC(=O)[*:2])N[*:1]; γGlu = O=C(O)[C@H](CCC(=O)[*:2])N[*:1]; 2Nal = N[C@@H](Cc1ccc2ccccc2c1)C(=O)O; AEEA = NCCOCCOCC(=O)O; Aib = CC(C)(N)C(=O)O; Inp = O=C(O)C1CCNCC1

Target: human serum albumin (HSA) (Homo sapiens, UniProt P02768)
Assay: Albumin binding affinity, competition scintillation proximity assay
Conditions: for EC50 at 20 h: human, pH 7.4
Protocol: Streptavidin-SPA beads (GE Healthcare RPNQ0009) were incubated with biotinylated HSA for 5 hours. The beads were washed with buffer to remove unbound HSA. […] After 20 hours of gentle rocking at room temperature the plates were centrifuged and counted on a TopCounter.

Chain of human serum albumin (HSA) (P02768 25-609): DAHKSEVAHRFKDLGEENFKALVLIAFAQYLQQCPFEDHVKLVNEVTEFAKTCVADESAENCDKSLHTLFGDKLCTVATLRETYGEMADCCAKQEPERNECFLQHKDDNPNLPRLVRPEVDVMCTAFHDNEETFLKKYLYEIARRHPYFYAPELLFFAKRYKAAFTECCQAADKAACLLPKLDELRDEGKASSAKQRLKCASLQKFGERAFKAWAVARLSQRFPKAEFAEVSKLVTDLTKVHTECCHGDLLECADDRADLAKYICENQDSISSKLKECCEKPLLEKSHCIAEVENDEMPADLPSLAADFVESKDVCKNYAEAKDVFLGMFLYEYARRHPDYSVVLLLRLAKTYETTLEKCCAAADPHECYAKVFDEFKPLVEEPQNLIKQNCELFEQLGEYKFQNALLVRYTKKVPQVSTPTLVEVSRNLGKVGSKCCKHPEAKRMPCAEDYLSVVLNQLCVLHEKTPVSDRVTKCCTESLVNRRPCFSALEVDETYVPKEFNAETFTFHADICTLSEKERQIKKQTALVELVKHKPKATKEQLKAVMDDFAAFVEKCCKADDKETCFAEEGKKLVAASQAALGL

| SMILES | EC50 [nM] | further results |
| --- | --- | --- |
| CC[C@H](C)[C@H](NC(=O)[C@H](Cc1ccccc1)NC(=O)[C@H](CCC(=O)O)NC(=O)[C@H](CCCNC(=N)N)NC(=O)[C@H](C)NC(=O)[C@H](C)NC(=O)[C@H](CCC(N)=O)NC(=O)[C@H](CCC(=O)O)NC(=O)[C@H](CCC(=O)O)NC(=O)[C@H](CC(C)C)NC(=O)[C@H](Cc1ccc(O)cc1)NC(=O)[C@H](CO)NC(=O)[C@H](CO)NC(=O)[C@@H](NC(=O)[C@H](CC(=O)O)NC(=O)[C@H](CO)NC(=O)[C@@H](NC(=O)[C@H](Cc1ccccc1)NC(=O)[C@@H](NC(=O)CNC(=O)[C@H](CCC(=O)O)NC(=O)[C@H](C)NC(=O)CCc1c[nH]cn1)[C@@H](C)O)[C@@H](C)O)C(C)C)C(=O)N[C@@H](C)C(=O)N[C@@H](Cc1c[nH]c2ccccc12)C(=O)N[C@@H](CC(C)C)C(=O)N[C@H](C(=O)N[C@@H](CCCNC(=N)N)C(=O)NCC(=O)N[C@@H](CCCNC(=N)N)C(=O)N[C@@H](CCCCNC(=O)COCCOCCNC(=O)COCCOCCNC(=O)CC[C@H](NC(=O)[C@H]1CC[C@H](CNC(=O)CCCCCCCCCCCCCCCCCCC(=O)O)CC1)C(=O)O)C(=O)O)C(C)C [Example 26, N-epsilon37-[2-(2-{2-[2-(2-{2-[(S)-4-Carboxy-4-({trans-4-[(19-carboxy-nonadecanoylamino)methyl]cyclohexanecarbonyl}amino)butyrylamino]ethoxy}ethoxy)acetylamino]ethoxy}ethoxy)acetyl][DesaminoHis7,Glu22,Arg26,Arg34,Lys37]GLP-1-(7-37)] | 800 to 2000 |  |
| CC[C@H](C)[C@H](NC(=O)[C@H](Cc1ccccc1)NC(=O)[C@H](CCC(=O)O)NC(=O)[C@H](CCCNC(=N)N)NC(=O)[C@H](C)NC(=O)[C@H](C)NC(=O)[C@H](CCC(N)=O)NC(=O)CNC(=O)[C@H](CCC(=O)O)NC(=O)[C@H](CC(C)C)NC(=O)[C@H](Cc1ccc(O)cc1)NC(=O)[C@H](CO)NC(=O)[C@H](CO)NC(=O)[C@@H](NC(=O)[C@H](CC(=O)O)NC(=O)[C@H](CO)NC(=O)[C@@H](NC(=O)[C@H](Cc1ccccc1)NC(=O)[C@@H](NC(=O)CNC(=O)[C@H](CCC(=O)O)NC(=O)[C@H](C)NC(=O)CCc1c[nH]cn1)[C@@H](C)O)[C@@H](C)O)C(C)C)C(=O)N[C@@H](C)C(=O)N[C@@H](Cc1c[nH]c2ccccc12)C(=O)N[C@@H](CC(C)C)C(=O)N[C@H](C(=O)N[C@@H](CCCNC(=N)N)C(=O)NCC(=O)N[C@@H](CCCNC(=N)N)C(=O)N[C@@H](CCCCNC(=O)COCCOCCNC(=O)COCCOCCNC(=O)CC[C@H](NC(=O)[C@H]1CC[C@H](CNC(=O)CCCCCCCCCCCCCCCCCCC(=O)O)CC1)C(=O)O)C(=O)O)C(C)C [Example 31, N-epsilon37-[2-(2-{2-[2-(2-{2-[(S)-4-Carboxy-4-({trans-4-[(19-carboxy-nonadecanoylamino)methyl]cyclohexanecarbonyl}amino)butyrylamino]ethoxy}ethoxy)acetylamino]ethoxy}ethoxy)acetyl][DesaminoHis7,Arg26,Arg34,Lys37]GLP-1-(7-37)] |  | EC50 at 20 h (biotinylated human serum albumin on streptavidin-SPA beads): 300 to 800 nM |
| CC[C@H](C)[C@H](NC(=O)[C@H](Cc1ccccc1)NC(=O)[C@H](CCC(=O)O)NC(=O)[C@H](CCCNC(=N)N)NC(=O)[C@H](C)NC(=O)[C@H](C)NC(=O)[C@H](CCC(N)=O)NC(=O)[C@H](CCC(=O)O)NC(=O)[C@H](CCC(=O)O)NC(=O)[C@H](CC(C)C)NC(=O)[C@H](Cc1ccc(O)cc1)NC(=O)[C@H](CO)NC(=O)[C@H](CO)NC(=O)[C@@H](NC(=O)[C@H](CC(=O)O)NC(=O)[C@H](CO)NC(=O)[C@@H](NC(=O)[C@H](Cc1ccccc1)NC(=O)[C@@H](NC(=O)CNC(=O)[C@H](CCC(=O)O)NC(=O)[C@H](C)NC(=O)Cc1c[nH]cn1)[C@@H](C)O)[C@@H](C)O)C(C)C)C(=O)N[C@@H](C)C(=O)N[C@@H](Cc1c[nH]c2ccccc12)C(=O)N[C@@H](CC(C)C)C(=O)N[C@H](C(=O)N[C@@H](CCCNC(=N)N)C(=O)NCC(=O)N[C@@H](CCCNC(=N)N)C(=O)N[C@@H](CCCCNC(=O)COCCOCCNC(=O)COCCOCCNC(=O)CC[C@H](NC(=O)[C@H]1CC[C@H](CNC(=O)CCCCCCCCCCCCCCCCCCC(=O)O)CC1)C(=O)O)C(=O)O)C(C)C [Example 54, N-alpha8-[2-(4-imidazolyl)acetyl] N-epsilon37-[2-(2-{2-[2-(2-{2-[(S)-4-Carboxy-4-({trans-4-[(19-carboxynonadecanoylamino)methyl]cyclohexanecarbonyl}amino)butyrylamino]ethoxy}ethoxy)acetylamino]ethoxy}ethoxy)acetyl][Glu22,Arg26,Arg34,Lys37]GLP-1-(8-37)] |  | EC50 at 20 h: 150 to 300 nM |
| CC[C@H](C)[C@H](NC(=O)[C@H](Cc1ccccc1)NC(=O)[C@H](CCC(=O)O)NC(=O)[C@H](CCCNC(=N)N)NC(=O)[C@H](C)NC(=O)[C@H](C)NC(=O)[C@H](CCC(N)=O)NC(=O)CNC(=O)[C@H](CCC(=O)O)NC(=O)[C@H](CC(C)C)NC(=O)[C@H](Cc1ccc(O)cc1)NC(=O)[C@H](CO)NC(=O)[C@H](CO)NC(=O)[C@@H](NC(=O)[C@H](CC(=O)O)NC(=O)[C@H](CO)NC(=O)[C@@H](NC(=O)[C@H](Cc1ccccc1)NC(=O)[C@@H](NC(=O)CNC(=O)[C@H](CCC(=O)O)NC(=O)[C@H](C)NC(=O)CCc1cnc[nH]1)[C@@H](C)O)[C@@H](C)O)C(C)C)C(=O)N[C@@H](C)C(=O)N[C@@H](Cc1c[nH]c2ccccc12)C(=O)N[C@@H](CC(C)C)C(=O)N[C@H](C(=O)N[C@@H](CCCNC(=N)N)C(=O)NCC(=O)N[C@@H](CCCNC(=N)N)C(=O)NCC(=O)N[C@@H](CCCCNC(=O)COCCOCCNC(=O)COCCOCCNC(=O)CC[C@H](NC(=O)[C@H]1CC[C@H](CNC(=O)CCCCCCCCCCCCCCCCCCC(=O)O)CC1)C(=O)O)C(N)=O)C(C)C [Example 28] | > 2000 |  |

More lines, main results first:

| EC50 [nM] | SMILES | further results |
| --- | --- | --- |
| 300 to 800 | CC[C@H](C)[C@H](NC(=O)[C@H](Cc1ccccc1)NC(=O)[C@H](CCC(=O)O)NC(=O)[C@H](CCCNC(=N)N)NC(=O)[C@H](C)NC(=O)[C@H](C)NC(=O)[C@H](CCC(N)=O)NC(=O)CNC(=O)[C@H](CCC(=O)O)NC(=O)[C@H](CC(C)C)NC(=O)[C@H](Cc1ccc(O)cc1)NC(=O)[C@H](CO)NC(=O)[C@H](CO)NC(=O)[C@@H](NC(=O)[C@H](CC(=O)O)NC(=O)[C@H](CO)NC(=O)[C@@H](NC(=O)[C@H](Cc1ccccc1)NC(=O)[C@@H](NC(=O)CNC(=O)[C@H](CCC(=O)O)NC(=O)[C@H](C)NC(=O)CCc1c[nH]cn1)[C@@H](C)O)[C@@H](C)O)C(C)C)C(=O)N[C@@H](C)C(=O)N[C@@H](Cc1c[nH]c2ccccc12)C(=O)N[C@@H](CC(C)C)C(=O)N[C@H](C(=O)N[C@@H](CCCNC(=N)N)C(=O)NCC(=O)N[C@@H](CCCNC(=N)N)C(=O)N[C@@H](CCCCNC(=O)COCCOCCNC(=O)COCCOCCNC(=O)CC[C@H](NC(=O)C1CCN(C(=O)CCCCCCCCCCCCCCCCCCC(=O)O)CC1)C(=O)O)C(=O)O)C(C)C [Example 60, N-epsilon37-(2-{2-[2-(2-{2-[2-((S)-4-Carboxy-4-{[1-(19-carboxynonadecanoyl)piperidine-4-carbonyl]amino}butyrylamino)ethoxy]ethoxy}acetylamino)ethoxy]ethoxy}acetyl) [DesaminoHis7,Arg26,Arg34,Lys37]GLP-1-(7-37)] |  |
| 150 to 300 | CC[C@H](C)[C@H](NC(=O)[C@H](Cc1ccccc1)NC(=O)[C@H](CCC(=O)O)NC(=O)[C@H](CCCNC(=N)N)NC(=O)[C@H](C)NC(=O)[C@H](C)NC(=O)[C@H](CCC(N)=O)NC(=O)CNC(=O)[C@H](CCC(=O)O)NC(=O)[C@H](CCCCNC(=O)COCCOCCNC(=O)COCCOCCNC(=O)C[C@@H](NC(=O)C1CCN(C(=O)CCCCCCCCCCCCCCCCC(=O)O)CC1)C(=O)O)NC(=O)[C@H](Cc1ccc(O)cc1)NC(=O)[C@H](CO)NC(=O)[C@H](CO)NC(=O)[C@@H](NC(=O)[C@H](CC(=O)O)NC(=O)[C@H](CO)NC(=O)[C@@H](NC(=O)[C@H](Cc1ccc2ccccc2c1)NC(=O)[C@@H](NC(=O)CNC(=O)[C@H](CCC(=O)O)NC(=O)C(C)(C)NC(=O)[C@@H](N)Cc1c[nH]cn1)[C@@H](C)O)[C@@H](C)O)C(C)C)C(=O)N[C@@H](CCC(=O)O)C(=O)N[C@@H](Cc1c[nH]c2ccccc12)C(=O)N[C@@H](CC(C)C)C(=O)N[C@H](C(=O)N[C@@H](CCCCN)C(=O)NCC(=O)N[C@@H](CCCNC(=N)N)C(=O)NCC(N)=O)C(C)C [Example 13, N-ε^20({2-[2-(2-{2-[2-((R)-3-carboxy-3-{[1-(17-carboxyheptadecanoyl)piperidine-4-carbonyl]amino}propionylamino)ethoxy]ethoxy}acetylamino)ethoxy]ethoxy}acetyl) [Aib^8,Lys^20,Arg^26,2-Naphtylalanine^12, Glu^30]GLP-1-(7-37)amide] (H-H[Aib]EGT[2Nal]TSDVSSYK([AEEA-AEEA-d(βAsp)-Inp-C18 diacid])EGQAAREFIEWLVKGRG-NH2; N-terminus assumed) |  |
| 300 to 800 | CC[C@H](C)[C@H](NC(=O)[C@H](Cc1ccccc1)NC(=O)[C@H](CCC(=O)O)NC(=O)[C@H](CCCNC(=N)N)NC(=O)[C@H](C)NC(=O)[C@H](C)NC(=O)[C@H](CCC(N)=O)NC(=O)[C@H](CCC(=O)O)NC(=O)[C@H](CCC(=O)O)NC(=O)[C@H](CC(C)C)NC(=O)[C@H](Cc1ccc(O)cc1)NC(=O)[C@H](CO)NC(=O)[C@H](CO)NC(=O)[C@@H](NC(=O)[C@H](CC(=O)O)NC(=O)[C@H](CO)NC(=O)[C@@H](NC(=O)[C@H](Cc1ccccc1)NC(=O)[C@@H](NC(=O)CNC(=O)[C@H](CCC(=O)O)NC(=O)C(C)(C)NC(=O)[C@@H](N)Cc1c[nH]cn1)[C@@H](C)O)[C@@H](C)O)C(C)C)C(=O)N[C@@H](C)C(=O)N[C@@H](Cc1c[nH]c2ccccc12)C(=O)N[C@@H](CC(C)C)C(=O)N[C@H](C(=O)N[C@@H](CCCNC(=N)N)C(=O)NCC(=O)N[C@@H](CCCNC(=N)N)C(=O)NCC(=O)N[C@@H](CCCCNC(=O)COCCOCCNC(=O)COCCOCCNC(=O)CC[C@H](NC(=O)C1CCN(C(=O)CCCCCCCCCCCCCCCCCCC(=O)O)CC1)C(=O)O)C(N)=O)C(C)C [Example 12, [Aib8, Glu22, Arg26, Arg34]GLP-1-(7-37)Lys[2-(2-[2-(2-[2-(2-((S)-4-[1-[19-Carboxynonadecanoyl]piperidine-4-carbonylamino]-4-carboxybutyrylamino)ethoxy)ethoxy]acetylamino)ethoxy]ethoxy)acetyl]amide] (H-H[Aib]EGTFTSDVSSYLEEQAAREFIAWLVRGRGK([AEEA-AEEA-γGlu-Inp-C20 diacid])-NH2) |  |
